Earlier results as cited in patent publication US7501409B2, “Preparations for oral administration” (Mitsubishi Tanabe Pharma Corporation, priority 2000, dated 2009).
Structures can show the parent of a compound that is named as a salt. Where two headings read alike, the source gives them in different places.

solubility (pH 1.2): 2520 µg/mL
solubility (pH 6.8): 110 µg/mL
SMILES: CCCc1nn(C)c2c(=O)[nH]c(-c3cc(S(=O)(=O)N4CCN(C)CC4)ccc3OCC)nc12 [sildenafil citrate]
